The source made the active and inactive calls. How the calls were made is not given here.

The target of this assay is Influenza A virus M2 proton channel (A/TW/4845/1999 H1N1). Kind of assay: M2 proton channel binding, NMR based, influenza A virus H1N1 strain (AID 1549). The note with it: NMR binding screen, M2 protein.
Regarding `CCSc1nc2ccccc2[nH]1`, the Kd – broadly, the equilibrium constant for the complex coming apart – is > 4 mM (inactive).

`CNCc1ccccc1`: the Kd is > 4 mM (inactive). With `CC(=O)O[C@H]1CCC2(C)C3=C(CCC2C1(C)C)[C@]1(C)CCC(C(C)CCC=C(C)C)[C@@]1(C)CC3` (some centres undefined), the Kd is > 4 mM (inactive). For `NC(=O)CCn1ncc2ccccc21`, the Kd is > 4 mM (inactive). As for `CC(=O)c1c(C)nc(-c2cccs2)n1O`, the Kd is > 4 mM (inactive). Take `COc1cc(-c2coc3cc(OCc4ccccc4)c(OC)c(O)c3c2=O)cc(O)c1OC`: the Kd is > 4 mM (inactive). Take `Cc1ccc(NC(=O)CC2NCCNC2=O)c(C)c1` (centres undefined): the Kd was > 4 mM (inactive). For `CN1CCN(C(=O)Nc2cccc3ccccc23)CC1`, the Kd was > 4 mM (inactive). With `O=C1NC(=O)C(=Cc2ccccc2)C(=O)N1` the figure was > 4 mM (inactive); with `O=C(CSc1ccnc(=O)[nH]1)NCc1ccco1`, > 4 mM (inactive).

Regarding `CN(C)c1nc(N2CCOCC2)c2cnn(C)c2n1`, the Kd was > 4 mM (inactive). For the molecule `NC(Cc1c[nH]c2ccccc12)C(=O)O` (centres undefined), the Kd was > 4 mM (inactive). With `C[C@@H](N)[C@@H](O)c1ccccc1` the figure was > 4 mM (inactive); with `Nc1ccccc1N=C1CNC(=O)C1`, > 4 mM (inactive); with `Cc1nc2c(=O)[nH]c3ccccc3c2o1`, > 4 mM (inactive). For `O=C1C2C3C=CC(C3)C2C(=O)N1CCCO` (centres undefined), the Kd was > 4 mM (inactive). With `O=C(CSc1ncccn1)NCc1ccco1` the figure was > 4 mM (inactive); with `CP(C)(=O)CCC(=O)O`, > 4 mM (inactive); with `O=C(O)c1ccc(-n2cncn2)cc1`, > 4 mM (inactive).

For `Fc1ccc(NC2=NCCS2)cc1Cl`, the Kd is > 4 mM (inactive). Regarding `CC(C)CCCC1(C)C=Cc2c(O)c3c(c(CCC(C)C)c2O1)OC12C(CC4CC1C(C)(C)OC2(CCC(C)C(=O)O)C4O)C3=O` (centres undefined), the Kd is > 4 mM (inactive). With `O=C1Nc2ccccc2C12OCCO2`, the Kd was > 4 mM (inactive). Take `O=C(O)C1CC(=O)N(Cc2ccc(F)cc2)C1` (centres undefined): the Kd is > 4 mM (inactive).

Regarding `Cc1ccc(SCc2nc(-c3cccnc3)no2)cc1`, the Kd was > 4 mM (inactive). Turning to `Cc1ccc(/C=C2/NC(=S)NC2=O)s1`, the Kd is > 4 mM (inactive).

Consider `OCc1ccc2c(c1)OCO2`, for which the Kd is > 4 mM (inactive). As for `O=C(Nc1cnc2ccccn2c1=O)c1ccc(F)cc1`, the Kd is > 4 mM (inactive). For `Cc1ccc(-c2nc(N)n(C(=O)c3cccnc3)n2)cc1`, the Kd is > 4 mM (inactive).

Regarding `CC(=O)NS(=O)(=O)c1ccc(C)cc1`, the Kd was > 4 mM (inactive). Consider `O=C(O)c1cccc2nsnc12`, for which the Kd was > 4 mM (inactive). With `O=C1NC(=O)C(C(=S)Nc2ccccc2)C(=O)N1`, the Kd is > 4 mM (inactive). Turning to `Cc1ccc(S(=O)(=O)/N=C2\NC(=O)CS2)cc1`, the Kd was > 4 mM (inactive). Regarding `Cc1ccc(NC(=O)/C=C2\SC(=O)NC2=O)cc1`, the Kd was > 4 mM (inactive). As to `COc1ccc(C[C@H]2NC[C@H](O)[C@H]2OC(C)=O)cc1`, the Kd was > 4 mM (inactive). For the molecule `O=C(O)CNCC(O)Cn1c2ccccc2c2ccccc21` (centres undefined), the Kd was > 4 mM (inactive).

On to `O=c1[nH]cnc2nn(-c3ccccc3)nc12`, for which the Kd was > 4 mM (inactive). Turning to `CCOC(=O)c1c(C)cc(O)c(C)c1O`, the Kd is > 4 mM (inactive). As for `O=c1[nH]c2ccccc2c(=O)n1CCCO`, the Kd is > 4 mM (inactive). As to `O=C(Nc1ccc2c(c1)OCCO2)c1ccncc1`, the Kd is > 4 mM (inactive). Take `[O-][n+]1onc2c1CCc1c-2nn(-c2ccccc2)[n+]1[O-]`: the Kd was > 4 mM (inactive).

Take `CC(C)=CC1C(CO)C1(C)C` (centres undefined): the Kd is > 4 mM (inactive).

For the molecule `CCC(C)C(=O)OC1[C@@H]2CC3=C4CC(=O)O[C@@H](c5ccoc5)[C@]4(C)CCC3C(C)(C2=O)[C@@H](CC(=O)OC)C1(C)C` (some centres undefined), the Kd is > 4 mM (inactive).

Consider `O=C(/C=C/c1ccc(O)c(O)c1)O[C@@H]1C[C@](O)(C(=O)O)C[C@@H](O)[C@H]1O`, for which the Kd was > 4 mM (inactive). Take `CCOC(=O)c1sc(SC)c2c1CCCC2O` (centres undefined): the Kd is > 4 mM (inactive). With `Cn1nc(C(=O)Nc2cccnc2)cc1Cl` the figure was > 4 mM (inactive); with `C=Cc1c(C)c2cc3[nH]c(cc4nc(cc5nc(cc1[nH]2)C(C)=C5CCC(=O)O)C(CCC(=O)O)=C4C)c(C)c3C=C`, > 4 mM (inactive). `C/C1=C/CC(C)(C)/C=C/C/C(C)=C/CC1`: the Kd is > 4 mM (inactive). With `CC(=O)Nc1ccc(C(=O)NC2=NCCS2)cc1`, the Kd was > 4 mM (inactive). For `CC1(C)N=C2C(=N)C=CC=C2N1O`, the Kd is > 4 mM (inactive).

As for `CC(=O)O[C@@H]1CC2C(C)(C)[C@@H](O)CC[C@]2(C)C2CC[C@@]3(C)[C@H](c4ccoc4)OC(=O)[C@H]4O[C@]43[C@@]21C` (some centres undefined), the Kd is > 4 mM (inactive).

With `Cc1ccccc1CSc1nnc(C)n1N`, the Kd was > 4 mM (inactive). The figure for `CC(=O)OCc1cc(=O)n(C)c(=O)n1C` is > 4 mM (inactive); for `NC(=O)CN=Cc1c(O)[nH]c2ccccc12` it is > 4 mM (inactive). With `c1cc(CNc2ccc3c(c2)OCCO3)ccn1`, the Kd is > 4 mM (inactive). `CC(=O)Nc1ccn(-c2ccccc2)n1`: the Kd is > 4 mM (inactive). For the molecule `COc1cc(OC)cc(-c2nc(N)n[nH]2)c1`, the Kd is > 4 mM (inactive).

As to `CC(=O)NC(C)C12CC3CC(CC(C(=O)O)(C3)C1)C2` (centres undefined), the Kd was > 4 mM (inactive). Consider `NC1=NC(=O)/C(=C\c2cccc(C(=O)O)c2)S1`, for which the Kd is > 4 mM (inactive). Regarding `COCc1cc(Cl)nc(-c2csc(C)n2)n1`, the Kd is > 4 mM (inactive). In the case of `CC(=O)Nc1ccc(Oc2nc(C)cc(C)n2)cc1`, the Kd is > 4 mM (inactive). Take `Cc1cc(SCC(=O)Nc2nccs2)nc(=O)[nH]1`: the Kd was > 4 mM (inactive).

Turning to `O=C(O)c1cnc2sc3ccccc3n2c1=O`, the Kd is > 4 mM (inactive). As to `CC(=O)Oc1cc2c(c(C)c1OC(C)=O)CC=C1[C@@]2(C)CC[C@@]2(C)C3C[C@](C)(C(=O)O)CC[C@]3(C)CC[C@]12C` (some centres undefined), the Kd is > 4 mM (inactive). The figure for `O=C(O)CCC(=O)Nc1nnc(C(F)(F)F)s1` is > 4 mM (inactive); for `N[C@@H](Cc1ccc(O)c(O)c1)C(=O)O` it is > 4 mM (inactive). For `COc1ccc(C)cc1S(=O)(=O)N1CCCCC1`, the Kd was > 4 mM (inactive). Regarding `COc1c2ccccc2nc2occc12`, the Kd was > 4 mM (inactive). Consider `O=C(CC1SC(=O)NC1=O)Nc1ccccc1` (centres undefined), for which the Kd was > 4 mM (inactive). `CN(C)Cc1nc2c([nH]1)c(=O)[nH]c(=O)n2C`: the Kd was > 4 mM (inactive). For the molecule `O=C(O)c1cc(O)c(O)c(O)c1`, the Kd was > 4 mM (inactive). Regarding `CC(=O)C1=C(O)C(=O)NC1c1ccccc1` (centres undefined), the Kd was > 4 mM (inactive).

Take `CC(C)(C)Cc1nc(-c2ccccn2)no1`: the Kd is > 4 mM (inactive). With `CSc1ccccc1NC(=O)c1cnccn1` the figure was > 4 mM (inactive); with `C[C@@H]1O[C@@H](O[C@H]2CC[C@]3(C=O)C4CC[C@]5(C)[C@@H](C6=CC(=O)OC6)CC[C@]5(O)C4CC[C@]3(O)C2)[C@H](O)[C@H](O)[C@H]1O` (some centres undefined), > 4 mM (inactive); with `CN1C2CCC1CC(OC(=O)C(CO)c1ccccc1)C2` (centres undefined), > 4 mM (inactive). With `Cc1c(-c2ccccc2)[n+](=O)c(-c2ccco2)c(C)n1[O-]`, the Kd was > 4 mM (inactive). As to `COc1ncccc1N`, the Kd was > 4 mM (inactive).

For `CCOC(=O)C1CCNCC1`, the Kd is > 4 mM (inactive). In the case of `O=C(O)Cc1csc(-c2ccccc2)n1`, the Kd was > 4 mM (inactive).

Turning to `O=C1c2cccc3cc(S(=O)(=O)O)cc(c23)C(=O)N1O`, the Kd was > 4 mM (inactive). Regarding `Cc1ccc(-c2nn3c(C)nnc3s2)cc1N`, the Kd was > 4 mM (inactive). With `Cc1cc(C)c2ccc[n+]([O-])c2c1O` the figure was > 4 mM (inactive). Regarding `Cc1nnc(N2CCN(Cc3ccccc3)CC2)[nH]c1=O`, the Kd was > 4 mM (inactive). With `Cc1cc(=O)oc2c1c(C)nn2CN1CCN(C)CC1`, the Kd is > 4 mM (inactive).

For `OCCNC(=S)Nc1ccccc1`, the Kd is > 4 mM (inactive). Consider `CC1(C)Cc2cccc(C(=O)O)c2O1`, for which the Kd is > 4 mM (inactive).

Consider `NCCc1nc2ccccc2[nH]1`, for which the Kd is > 4 mM (inactive). Turning to `CC(=O)c1cccc(NC(=O)NN2CCOCC2)c1`, the Kd is > 4 mM (inactive). For `Nc1cccc(OC(F)(F)F)c1`, the Kd was > 4 mM (inactive). On to `O=C(Nc1c[nH]c(=O)[nH]c1=O)c1ccccc1F`, for which the Kd is > 4 mM (inactive). With `O=C1c2ccccc2C(=O)c2c1ccc(O)c2O` the figure was > 4 mM (inactive); with `CN(C)N1C(=O)C2CCCCC2C1=O` (centres undefined), > 4 mM (inactive); with `Cc1nc2ccccc2c(=O)n1NC(=O)Nc1ccccc1`, > 4 mM (inactive).

For `C=C1C2CC[C@@]3(C)[C@H](c4ccoc4)OC(=O)C[C@]13O[C@H]1CC(=O)C(C)(C)C(CC(=O)OC)C21C` (some centres undefined), the Kd is > 4 mM (inactive). With `Cc1ccc(C(=O)Nn2cnnc2)c(Cl)c1` the figure was > 4 mM (inactive). With `CC(CCC(=O)O)[C@H]1CCC2C3C(C[C@H](O)[C@@]21C)[C@@]1(C)CC[C@@H](O)C[C@H]1C[C@H]3O` (some centres undefined) the figure was > 4 mM (inactive). `Cc1nc2[nH]onc2c2nccc(=O)c12`: the Kd was > 4 mM (inactive). On to `CCOC(=O)c1c(-c2ccncc2)csc1N`, for which the Kd was > 4 mM (inactive). Consider `CC(C)=CCCC1(C)C=Cc2c(O)c3c(c(CC=C(C)C)c2O1)OC12C(=CCCC1C(C)(C)O[C@@]2(C/C=C(\C)C(=O)O)C(=O)O)C3=O` (some centres undefined), for which the Kd is > 4 mM (inactive).

Values taken from PubChem BioAssay AID1549 (Sanford-Burnham Center for Chemical Genomics, 2009).
